Data: US20230129359A1, “MUSCARINIC RECEPTOR 4 ANTAGONISTS AND METHODS OF USE” (Neurocrine Biosciences, Inc., priority 2020, published 2023)

These compounds were tested against T1, human M4 receptor (Homo sapiens, UniProt P08173) (assay: Radioligand ([3H]N-methylscopolamine) binding assay, membranes from CHO cells expressing human M4 receptor). Details: Ki against human M4 receptor; membranes from CHO cells; tritiated N-methylscopolamine 1.5 nM; read-out: K.
T1 construct: expressed in transfected cells; host or cells: CHO cells
T1 sequence (P08173 1-479): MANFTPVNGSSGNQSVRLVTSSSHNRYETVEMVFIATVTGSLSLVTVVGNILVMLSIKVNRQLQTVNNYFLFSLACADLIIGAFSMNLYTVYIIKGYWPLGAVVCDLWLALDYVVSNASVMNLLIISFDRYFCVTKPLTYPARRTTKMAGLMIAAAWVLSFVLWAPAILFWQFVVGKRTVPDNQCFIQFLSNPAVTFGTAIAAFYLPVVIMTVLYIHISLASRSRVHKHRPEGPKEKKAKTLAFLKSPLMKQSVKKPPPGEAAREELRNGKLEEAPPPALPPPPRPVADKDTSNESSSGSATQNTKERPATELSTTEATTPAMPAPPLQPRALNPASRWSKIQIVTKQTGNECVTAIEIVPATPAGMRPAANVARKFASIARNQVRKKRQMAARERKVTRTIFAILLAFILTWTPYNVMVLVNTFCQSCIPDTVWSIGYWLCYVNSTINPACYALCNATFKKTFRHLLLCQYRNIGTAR
In short: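 Ki values derive from displacement of tritiated N-methylscopolamine (1.5 nM) from human M4 receptor in CHO membranes. Membranes, radioligand and twelve-point compound series were incubated together at 37 °C for 90 minutes in pH 7.4 HEPES/NaCl/MgCl2/EDTA buffer. Rapid vacuum filtration over polyethylenimine-pretreated filters was followed by radioactivity counting.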

Row | Ki [nM] | Compound
1 | 100 to 1000 | CC(=O)Nc1ccc(CN2CC3(CC(NC(=O)N4[C@H](C)CN(c5ncc(C(F)(F)F)cn5)C[C@@H]4C)C3)C2)cc1 [Compound 321, (2R,6S)-N-{2-[(4-acetamidophenyl)methyl]-2-azaspiro[3.3]heptan-6-yl}-2,6-dimethyl-4-[5-(trifluoromethyl)pyrimidin-2-yl]piperazine-1-carboxamide]
2 | < 10 | C[C@@H]1CN(c2ccc(C(F)(F)F)cc2)C[C@H](C)N1C(=O)NC1CC2(C1)CN(Cc1ccccc1)C2 [Compound 47, (2R,6S)-N-{2-benzyl-2-azaspiro[3.3]heptan-6-yl}-2,6-dimethyl-4-[4-(trifluoromethyl)phenyl]pipera-zine-1-carboxamide]
3 | 10 to 100 | C[C@@H]1CN(c2nc3ccc(F)cc3o2)[C@@H](C)CN1C(=O)OC1CC2(C1)CN(Cc1ccccc1)C2 [Compound 446, 2-benzyl-2-azaspiro[3.3]heptan-6-yl (2R,5S)-4-(6-fluoro-1,3-benzoxazol-2-yl)-2,5-dimethylpiperazine-1-carboxylate]
4 | 10 to 100 | C[C@@H]1CN(c2ncc(C(F)(F)F)cn2)C[C@H](C)N1C(=O)OC1CC2(C1)CN(Cc1ccc(F)cc1)C2 [Compound 455, 2-[(4-fluorophenyl)methyl]-2-azaspiro[3.3]heptan-6-yl (2R,6S)-2,6-dimethyl-4-[5-(trifluoromethyl)pyrimidin-2-yl]piperazine-1-carboxylate]
5 | 10 to 100 | C[C@@H]1CN(c2ncc(C(F)(F)F)cn2)[C@H](C)CN1C(=O)OC1CC2(C1)CN(Cc1ccccc1)C2 [Compound 135, 2-benzyl-2-azaspiro[3.3]heptan-6-yl (2R,5R)-2,5-dimethyl-4-[5-(trifluoromethyl)pyrimidin-2-yl]piperazine-1-carboxylate]
6 | < 10 | C[C@@H]1CN(c2cnc3cc(C(F)(F)F)ccc3n2)[C@@H](C)CN1C(=O)OC1CC2(C1)CN(Cc1ccccc1)C2 [Compound 380, 2-benzyl-2-azaspiro[3.3]heptan-6-yl (2R,5S)-2,5-dimethyl-4-[6-(trifluoromethyl)quinoxalin-2-yl]piperazine-1-carboxylate]
7 | < 10 | C[C@H]1CN(C(=O)OC2CC3(C2)CN(Cc2ccccc2)C3)CCN1c1ncc(C(F)(F)F)cn1 [Compound 123, 2-benzyl-2-azaspiro[3.3]heptan-6-yl (3S)-3-methyl-4-[5-(trifluoromethyl)pyrimidin-2-yl]piperazine-1-carboxylate]
8 | < 10 | C[C@@H]1CN(c2ncc(OC(F)F)cn2)C[C@H](C)N1C(=O)OC1CC2(C1)CN(Cc1ccc(F)cc1)C2 [Compound 465, 2-[(4-fluorophenyl)methyl]-2-azaspiro[3.3]heptan-6-yl (2R,6S)-4-[5-(difluoromethoxy)pyrimidin-2-yl]-2,6-dimethylpiperazine-1-carboxylate]
9 | 10 to 100 | C[C@@H]1CN(c2ncc(C(F)(F)F)cn2)C[C@@H](C)N1C(=O)OC1(C)CC2(CN(Cc3ccccc3)C2)C1 [Compound 355, 2-benzyl-6-methyl-2-azaspiro[3.3]heptan-6-yl (2R,6R)-2,6-dimethyl-4-[5-(trifluoromethyl)pyrimidin-2-yl]piperazine-1-carboxylate]
10 | 10 to 100 | C[C@@H]1CN(c2ncc(C(F)F)cn2)C[C@H](C)N1C(=O)OC1CC2(C1)CN(Cc1ccc(F)cc1)C2 [Compound 467, 2-[(4-fluorophenyl)methyl]-2-azaspiro[3.3]heptan-6-yl (2R,6S)-4-[5-(difluoromethyl)pyrimidin-2-yl]-2,6-dimethylpiperazine-1-carboxylate]
11 | 100 to 1000 | C[C@@H]1CN(c2cnc3ccccc3n2)C[C@@H](C)N1C(=O)OC1CC2(C1)CN(Cc1ccccc1)C2 [Compound 185, 2-benzyl-2-azaspiro[3.3]heptan-6-yl (2R,6R)-2,6-dimethyl-4-(quinoxalin-2-yl)piperazine-1-carboxylate]
12 | 100 to 1000 | C[C@@H]1CN(c2ncc(C(F)(F)F)cn2)CCN1C(=O)OC1CC2(C1)CN(Cc1ccc(F)cc1)C2 [Compound 457, 2-[(4-fluorophenyl)methyl]-2-azaspiro[3.3]heptan-6-yl (2R)-2-methyl-4-[5-(trifluoromethyl)pyrimidin-2-yl]piperazine-1-carboxylate]
13 | < 10 | C[C@@H]1CN(c2ncc(C(F)(F)F)cn2)C[C@H](C)N1C(=O)NC1CC2(C1)CN(Cc1ccc(Cl)cc1)C2 [Compound 325, (2R,6S)-N-{2-[(4-chlorophenyl)methyl]-2-azaspiro[3.3]heptan-6-yl}-2,6-dimethyl-4-[5-(trifluoromethyl)pyrimidin-2-yl]piperazine-1-carboxamide]
14 | 10 to 100 | C[C@@H]1CN(c2ncc(C(F)(F)F)cn2)C[C@H](C)N1C(=O)NCC1CC2(C1)CN(Cc1ccccc1)C2 [Compound 97, (2R,6S)-N-({2-benzyl-2-azaspiro[3.3]heptna-6-yl}methyl)-2,6-dimethyl-4-[5-(trifluoromethyl)pyrimidin-2-yl]piperazine-1-carboxamide]
15 | 10 to 100 | C[C@@H]1CN(c2ncc(C(F)(F)F)cn2)C[C@H](C)N1C(=O)NC1CC2(C1)CN(Cc1cccnc1)C2 [Compound 303, (2R,6S)-2,6-dimethyl-N-[2-(pyridin-3-ylmethyl)-2-azaspiro[3.3]heptan-6-yl]-4-[5-(trifluoromethyl)pyrimidin-2-yl]piperazine-1-carboxamide]
16 | < 10 | C[C@@H]1CN(c2ncc(C(F)(F)F)c(N)n2)C[C@H](C)N1C(=O)OC1CC2(C1)CN(Cc1ccccc1)C2 [Compound 463, 2-benzyl-2-azaspiro[3.3]heptan-6-yl (2R,6S)-4-[4-amino-5-(trifluoromethyl)pyrimidin-2-yl]-2,6-dimethylpiperazine-1-carboxylate]
17 | < 10 | C[C@@H]1CN(c2nc3ccc(F)cc3s2)C[C@H](C)N1C(=O)OC1CC2(C1)CN(Cc1ccc(F)cc1)C2 [Compound 381, 2-[(4-fluorophenyl)methyl]-2-azaspiro[3.3]heptan-6-yl (2R,6S)-4-(6-fluoro-1,3-benzothiazol-2-yl)-2,6-dimethylpiperazine-1-carboxylate]
18 | 100 to 1000 | C[C@@H]1CN(c2ncc(C(F)(F)F)cn2)C[C@H](C)N1C(=O)NC1CC2(C1)CN(CCCCc1ccccc1)C2 [Compound 312, (2R,6S)-2,6-dimethyl-N-[2-(4-phenylbutyl)-2-azaspiro[3.3]heptan-6-yl]-4-[5-(trifluoromethyl)pyrimidin-2-yl]piperazine-1-carboxamide]
19 | < 10 | C[C@@H]1CN(c2nc3ccc(F)cc3s2)CCN1C(=O)NC1CC2(C1)CN(Cc1ccccc1)C2 [Compound 234, (2R)-N-{2-benzyl-2-azaspiro[3.3]heptan-6-yl}-4-(6-fluoro-1,3-benzothiazol-2-yl)-2-methylpiperazine-1-carboxamide]
20 | < 10 | C[C@@H]1CN(c2ncc(C(F)(F)F)cn2)CCN1C(=O)OC1CC2(C1)CN(Cc1ccccc1)C2 [Compound 132, 2-benzyl-2-azaspiro[3.3]heptan-6-yl (2R)-2-methyl-4-[5-(trifluoromethyl)pyrimidin-2-yl]piperazine-1-carboxylate]
21 | < 10 | C[C@@H]1CN(c2cnc(OC(F)(F)F)cn2)C[C@@H](C)N1C(=O)OC1CC2(C1)CN(Cc1ccccc1)C2 [Compound 203, 2-benzyl-2-azaspiro[3.3]heptan-6-yl (2R,6R)-2,6-dimethyl-4-[5-(trifluoromethoxy)pyrazin-2-yl]piperazine-1-carboxylate]
22 | 10 to 100 | [2H]c1c([2H])c([2H])c(C([2H])([2H])N2CC3(CC(OC(=O)N4[C@H](C)CN(c5cnc(C(F)(F)F)cn5)C[C@@H]4C)C3)C2)c([2H])c1[2H] [Compound 388, 2-[(^2H5)phenyl(^2H2)methyl]-2-azaspiro[3.3]heptan-6-yl (2R,6S)-2,6-dimethyl-4-[5-(trifluoromethyl)pyrazin-2-yl]piperazine-1-carboxylate]
23 | 10 to 100 | C[C@@H]1CN(c2cc(F)c(F)c(F)c2)CCN1C(=O)NC1CC2(C1)CN(Cc1ccccc1)C2 [Compound 44, (2R)-N-{2-benzyl-2-azaspiro[3.3]heptan-6-yl}-2-methyl-4-(3,4,5-trifluorophenyl)piperazine-1-carboxamide]
24 | < 10 | C[C@@H]1CN(c2nc3cc(F)ccc3s2)[C@@H](C)CN1C(=O)OC1CC2(C1)CN(Cc1ccccc1)C2 [Compound 440, 2-benzyl-2-azaspiro[3.3]heptan-6-yl (2R,5S)-4-(5-fluoro-1,3-benzothiazol-2-yl)-2,5-dimethylpiperazine-1-carboxylate]
25 | 10 to 100 | C[C@@H]1CN(c2cnc(C(F)(F)F)cn2)[C@@H](C)CN1C(=O)NC1CC2(C1)CN(Cc1ccc(Cl)cc1)C2 [Compound 260, (2R,5S)-N-{2-[(4-chlorophenyl)methyl]-2-azaspiro[3.3]heptan-6-yl}-2,5-dimethyl-4-[5-(trifluoromethyl)pyrazin-2-yl]piperazine-1-carboxamide]
26 | < 10 | C[C@@H]1CN(c2nc3ccc(F)cc3s2)C[C@H](C)N1C(=O)OC1CC2(C1)CN(Cc1ccccc1)C2 [Compound 368, 2-benzyl-2-azaspiro[3.3]heptan-6-yl (2R,6S)-4-(6-fluoro-1,3-benzothiazol-2-yl)-2,6-dimethylpiperazine-1-carboxylate]
